Reference: patent US20250059182A1, “SOS1 INHIBITORS” (Mirati Therapeutics, Inc., priority 2021, published 2025)
Counter-ions that a name gives are not always drawn. Like-named read-outs stand apart in the source and are kept apart here.

Legend:
[1] = target: T1, recombinant human SOS1 polypeptide (amino acids 560-1049) (Homo sapiens, UniProt Q07889); assay: HTRF displacement assay: inhibition of labeled tracer binding to SOS1
T1 construct: corresponding to amino acids 560-1049, expressed in E. Coli; made in house; host or cells: E. coli
T1 sequence (Q07889 560-1049): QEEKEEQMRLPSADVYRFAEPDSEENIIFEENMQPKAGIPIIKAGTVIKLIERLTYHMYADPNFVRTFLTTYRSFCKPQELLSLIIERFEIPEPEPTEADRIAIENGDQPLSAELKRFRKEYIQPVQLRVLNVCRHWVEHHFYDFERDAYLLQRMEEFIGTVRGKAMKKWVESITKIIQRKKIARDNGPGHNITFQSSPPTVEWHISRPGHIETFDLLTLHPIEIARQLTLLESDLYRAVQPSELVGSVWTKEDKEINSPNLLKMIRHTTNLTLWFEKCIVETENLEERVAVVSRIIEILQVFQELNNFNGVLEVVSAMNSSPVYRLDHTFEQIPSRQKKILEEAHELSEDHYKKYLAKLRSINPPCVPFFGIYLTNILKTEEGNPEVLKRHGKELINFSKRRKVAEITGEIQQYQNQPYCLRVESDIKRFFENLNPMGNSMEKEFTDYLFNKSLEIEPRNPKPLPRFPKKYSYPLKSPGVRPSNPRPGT

[2] = tested on: pERK in MKN1 cells; assay: pERK inhibition, In-Cell Western (LI-COR Odyssey), MKN1 cells; type: cell-based
Outline: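 IC50 was fitted from % pERK inhibition, calculated as the GAPDH-normalised pERK signal of each well divided by the vehicle mean. Signal was imaged at 700 and 800 nm after fixation, methanol permeabilisation and dual antibody staining. Before fixation, MKN1 cells had received compound for about 0.5–1 h at 37 °C, top concentration 10 µM, nine 3-fold dilutions.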

[3] = Table A, Morrison equation for competitive binding
[4] = Homo sapiens, MKN-1, Table B, MKN1 or H358 cells (table does not say which), 0.5-1 hour incubation, read-out: IC50 (nM), pERK inhibition
[5] = Table A1, Morrison equation for competitive binding
[6] = Homo sapiens, MKN-1, read-out: IC50 (nM), pERK inhibition
[7] = Homo sapiens, MKN-1, Table B1, MKN1 or H358 cells (table does not say which), 0.5-1 hour incubation, read-out: IC50 (nM), pERK inhibition
[8] = Table B, MKN1 or H358 cells (table does not say which), 0.5-1 hour incubation, read-out: IC50 (nM), pERK inhibition

Molecule `CCN(c1cc2c(N[C@H](C)c3cccc(C#N)c3C)nnc(C)c2cn1)[C@@H]1CCN(C)C1` [Example 1-103, 3-((R)-1-((7-(ethyl((R)-1-methylpyrrolidin-3-yl)amino)-4-methylpyrido[3,4-d]pyridazin-1-yl)amino)ethyl)-2-methylbenzonitrile] has a Ki [1, 3] of 1.1 nM and an IC50 [2, 4] of 48.4 nM.
In the case of `Cc1c(C#N)cccc1[C@@H](C)Nc1nnc(C)c2cc(F)c(N3CC4(COC4)C3)cc12` [Example 4-2, (R)-3-(1-((6-fluoro-4-methyl-7-(2-oxa-6-azaspiro[3.3]heptan-6-yl)phthalazin-1-yl)amino)ethyl)-2-methylbenzonitrile], the Ki [1, 3] is reported as 5.85 nM and the IC50 [2, 4] is reported as 64 nM.
Molecule `Cc1c(C#N)cccc1[C@@H](C)Nc1nnc(C)c2cnc(NC3CCN(C)CC3)cc12` [Example 1-41, (R)-2-methyl-3-(1-((4-methyl-7-((1-methylpiperidin-4-yl)amino)pyrido[3,4-d]pyridazin-1-yl)amino)ethyl)benzonitrile] has a Ki [1, 3] of 4.49 nM and an IC50 [2, 4] of 272 nM.
With `Cc1c(C#N)cccc1[C@@H](C)Nc1nnc(C)c2cc(C(F)F)c(N3CCN(C)CC3)cc12` [Example P-185, (R)-3-(1-((6-(difluoromethyl)-4-methyl-7-(4-methylpiperazin-1-yl)phthalazin-1-yl)amino)ethyl)-2-methylbenzonitrile formic acid] the Ki [1, 5] was 4.95 nM and the IC50 [2, 6] was 118 nM.
Work on `COCCN1CC2(C1)CN(c1cc3c(N[C@H](C)c4cccc(C#N)c4C)nnc(C)c3cn1)C2` [Example 1-59, (R)-3-(1-((7-(6-(2-methoxyethyl)-2,6-diazaspiro[3.3]heptan-2-yl)-4-methylpyrido[3,4-d]pyridazin-1-yl)amino)ethyl)-2-methylbenzonitrile] yielded a Ki [1, 3] of 0.977 nM and an IC50 [2, 4] of 37.6 nM.
In the case of `Cc1c([C@@H](C)Nc2nnc(C)c3cnc(N4CCN(C)CC4)cc23)cc(N)nc1C(F)(F)F` [Example 1-102, (R)-N-(1-(6-amino-3-methyl-2-(trifluoromethyl)pyridin-4-yl)ethyl)-4-methyl-7-(4-methylpiperazin-1-yl)pyrido[3,4-d]pyridazin-1-amine], the Ki [1, 3] is reported as 2.18 nM and the IC50 [2, 4] is reported as 37 nM.
`Cc1c(C#N)cccc1[C@@H](C)Nc1nnc(C)c2cc(F)c(N(C)C)cc12` [Example P-222, (R)-3-(1-((7-(dimethylamino)-6-fluoro-4-methylphthalazin-1-yl)amino)ethyl)-2-methylbenzonitrile] showed a Ki [1, 5] of 3.97 nM and an IC50 [2, 7] of 188 nM.
In the case of `Cc1nnc(N[C@H](C)c2cc(N)cc(C(F)(F)F)c2F)c2cc(N3CC4CC(C3)O4)ncc12` [Example 1-94, N-((R)-1-(5-amino-2-fluoro-3-(trifluoromethyl)phenyl)ethyl)-7-(6-oxa-3-azabicyclo[3.1.1]heptan-3-yl)-4-methylpyrido[3,4-d]pyridazin-1-amine], the Ki [1, 3] is reported as 0.264 nM and the IC50 [2, 4] is reported as 15.4 nM.
`CCN1CCN(c2cc3c(N[C@H](C)c4cccc5c4OCC5(F)F)nnc(C)c3cn2)CC1` [Example 1-101, (R)-N-(1-(3,3-difluoro-2,3-dihydrobenzofuran-7-yl)ethyl)-7-(4-ethylpiperazin-1-yl)-4-methylpyrido[3,4-d]pyridazin-1-amine] was tested, and the Ki [1, 3] was 0.326 nM and the IC50 [2, 4] was 26.2 nM.
`Cc1nnc(N[C@H](C)c2cccc(C(F)F)c2F)c2cc(N3CCC34CN(C)C4)ccc12` [Example P-236, (R)-N-(1-(3-(difluoromethyl)-2-fluorophenyl)ethyl)-4-methyl-7-(6-methyl-1,6-diazaspiro[3.3]heptan-1-yl)phthalazin-1-amine] gave a Ki [1, 5] of 0.596 nM and an IC50 [2, 7] of 42.1 nM.
In the case of `CCN1CCN(c2cc3c(N[C@H](C)c4cccc(C#N)c4C)nnc(C)c3cn2)C[C@H]1C` [Example 1-13, 3-((R)-1-((7-((R)-4-ethyl-3-methylpiperazin-1-yl)-4-methylpyrido[3,4-d]pyridazin-1-yl)amino)ethyl)-2-methylbenzonitrile], the Ki [1, 3] is reported as 0.82 nM and the IC50 [2, 4] is reported as 47.3 nM.
In the case of `Cc1c(C#N)cccc1[C@@H](C)Nc1nnc(C)c2cnc(N3CC[C@H](N)C3)cc12` [Example 1-9, 3-((R)-1-((7-((S)-3-aminopyrrolidin-1-yl)-4-methylpyrido[3,4-d]pyridazin-1-yl)amino)ethyl)-2-methylbenzonitrile], the Ki [1, 3] is reported as 1.66 nM and the IC50 [2, 4] is reported as 396 nM.
Molecule `Cc1c(C#N)cccc1[C@@H](C)Nc1nnc(C)c2cnc(N3CCn4c(nnc4C(F)(F)F)C3)cc12` [Example P-33, (R)-2-methyl-3-(1-((4-methyl-7-(3-(trifluoromethyl)-5,6-dihydro-[1,2,4]triazolo[4,3-a]pyrazin-7(8H)-yl)pyrido[3,4-d]pyridazin-1-yl)amino)ethyl)benzonitrile] has a Ki [1, 5] of 6.92 nM and an IC50 [2, 7] of 121 nM.
`Cc1c([C@@H](C)Nc2nnc(C)c3cnc(N4CC5(CC(N(C)C)C5)C4)cc23)cccc1C(F)(F)F` [Example 1-66, (R)-7-(6-(dimethylamino)-2-azaspiro[3.3]heptan-2-yl)-4-methyl-N-(1-(2-methyl-3-(trifluoromethyl)phenyl)ethyl)pyrido[3,4-d]pyridazin-1-amine] gave a Ki [1, 3] of 0.106 nM and an IC50 [2, 4] of 32.4 nM.
Molecule `COc1cc2c(C)nnc(N[C@H](C)c3cccc(C#N)c3C)c2cc1OC` [Example 6-7, (R)-3-(1-((6,7-dimethoxy-4-methylphthalazin-1-yl)amino)ethyl)-2-methylbenzonitrile] has a Ki [1, 3] of 14.5 nM and an IC50 [2, 4] of 177 nM.
`Cc1c(C#N)cccc1[C@@H](C)Nc1nnc(C)c2cnc(N3C[C@@H]4[C@H]3CCN4C)cc12` (single isomer, unassigned) [Example 6-8] was tested, and the Ki [1, 3] was 0.808 nM and the IC50 [2, 8] was 33.8 nM.
Molecule `CCN1CCN(c2cc3c(N[C@H](C)c4cccc(C#N)c4C)nnc(C)c3cn2)C[C@@H]1C` [Example 1-18, 3-((R)-1-((7-((S)-4-ethyl-3-methylpiperazin-1-yl)-4-methylpyrido[3,4-d]pyridazin-1-yl)amino)ethyl)-2-methylbenzonitrile] has a Ki [1, 3] of 0.836 nM and an IC50 [2, 4] of 35.9 nM.
`Cc1c(C#N)cccc1[C@@H](C)Nc1nnc(C)c2cnc(N3CCC34COC4)cc12` [Example P-231, (R)-2-methyl-3-(1-((4-methyl-7-(6-oxa-1-azaspiro[3.3]heptan-1-yl)pyrido[3,4-d]pyridazin-1-yl)amino)ethyl)benzonitrile formic acid salt] was tested, and the Ki [1, 5] was 3.34 nM and the IC50 [2, 6] was 4290 nM.
With `Cc1c(C#N)cccc1[C@@H](C)Nc1nnc(C)c2cnc(N3C[C@@H]4[C@H]3CCN4C)cc12` (single isomer, unassigned) [Example 6-13] the Ki [1, 3] was 0.615 nM and the IC50 [2, 8] was 16.3 nM.
In the case of `COCCN1CC2(CCN2c2cc3c(N[C@H](C)c4cccc(C#N)c4C)nnc(C)c3cc2F)C1` [Example P-218, (R)-3-(1-((6-fluoro-7-(6-(2-methoxyethyl)-1,6-diazaspiro[3.3]heptan-1-yl)-4-methylphthalazin-1-yl)amino)ethyl)-2-methylbenzonitrile formic acid salt], the Ki [1, 5] is reported as 0.786 nM and the IC50 [2, 6] is reported as 60.3 nM.
With `Cc1c(C#N)cccc1[C@@H](C)Nc1nnc(C)c2cc(Cl)c(N3CCN(C)CC3)cc12` [Example 7-1, (R)-3-(1-((6-chloro-4-methyl-7-(4-methylpiperazin-1-yl)phthalazin-1-yl)amino)ethyl)-2-methylbenzonitrile] the Ki [1, 3] was 1.79 nM and the IC50 [2, 4] was 150 nM.
With `Cc1c(Br)cccc1[C@@H](C)Nc1nnc(C)c2cc(F)c(N3CCC34CN(C)C4)cc12` [Example P-214, (R)-N-(1-(3-bromo-2-methylphenyl)ethyl)-6-fluoro-4-methyl-7-(6-methyl-1,6-diazaspiro[3.3]heptan-1-yl)phthalazin-1-amine] the Ki [1, 5] was 0.262 nM and the IC50 [2, 7] was 156 nM.
Molecule `Cc1c(C#N)cccc1[C@@H](C)Nc1nnc(C)c2cnc(N(C)[C@H]3CCNC3)cc12` [Example 1-51, 2-methyl-3-((R)-1-((4-methyl-7-(methyl((S)-pyrrolidin-3-yl)amino)pyrido[3,4-d]pyridazin-1-yl)amino)ethyl)benzonitrile] has a Ki [1, 3] of 0.867 nM and an IC50 [2, 4] of 275 nM.
`Cc1c(C#N)cccc1[C@@H](C)Nc1nnc(C)c2cc(Cl)c(N(C)C)cc12` [Example P-195, (R)-3-(1-((6-chloro-7-(dimethylamino)-4-methylphthalazin-1-yl)amino)ethyl)-2-methylbenzonitrile formic acid salt] gave a Ki [1, 5] of 154 nM and an IC50 [2, 6] of 7130 nM.
For `Cc1c(C#N)cccc1[C@@H](C)Nc1nnc(C)c2cc(F)c(N3CCS(=O)(=O)CC3)cc12` [Example 4-19, (R)-3-(1-((7-(1,1-dioxidothiomorpholino)-6-fluoro-4-methylphthalazin-1-yl)amino)ethyl)-2-methylbenzonitrile], the Ki [1, 3] was 3.53 nM and the IC50 [2, 4] was 551 nM.
